The source of these data is patent US9630977B2, “Cephalosporin derivatives and pharmaceutical compositions thereof” (Legochem Biosciences, Inc., priority 2011, dated 2017).

Holding throughout (experiment): In vitro antibacterial activity test (broth microdilution)
Type in all cases: cell-based

The test system of one assay is A. baumannii 46. How it is done: (§1) To evaluate antibacterial activity of each of the compounds of Examples 1 to 68, in vitro antibacterial activity test was performed.
(§2) The in vitro antibacterial activity was evaluated by measuring MIC90 (ug/mL) of each of the compounds of Examples 1 to 68, which is defined as the lowest concentration of an antibiotic that will inhibit the visible growth of 90% of microorganisms after incubation as compared with a control group to which the antibiotic is not treated. MIC90 values were measured by the broth microdilution method developed by the Clinical and Laboratory Standards Institute (CLSI) (see CLSI M7-A5, Methods for Dilution Antimicrobial Susceptibility Test for Bacteria that Grow Aerobically-Fifth Edition (2000): CLSI, Villanova, Pa.).
(§3) In vitro antibacterial activity was measured with respect to the following 19 clinical isolates: M. catarrhalis; P. aeruginosa (5 strains); K. pneumoniae (6 strains); A. baumannii (3 strains); E. coli (2 strains); A. calcoaceticus; and E. cloacae.
(§4) Test compounds each (the cephalosporin derivative compounds prepared in Examples 1 to 68) were dissolved in DMSO at the concentration of 10,240 ug/mL, were diluted by two fold with DMSO, and then were diluted by twenty fold with sterilized distilled water. The final concentration in the antibacterial activity test was in the range of […] to 128 ug/mL, and the final concentration of DMSO used as an adjuvant was 2.5% (V/V).

Another assay concerns A. baumannii 49. The procedure:
as §1, §2, §3, §4

The next assay deals with A. baumannii 52. To be noted: Acinetobacter baumannii. The procedure: as §1, §2, §3, §4
In assay [1] the test system is A. calcoaceticus ATCC15473. To be noted: Acinetobacter calcoaceticus. How it is done: as §1, §2, §3, §4
A further assay deals with E. cloacae β19. The note with it: Enterobacter cloacae. How it is done:
as §1, §2, §3, §4

The next assay relates to E. coli AG100. To be noted: Escherichia coli. The procedure:
as §1, §2, §3, §4

The subject of the next assay is E. coli β4. To be noted: Escherichia coli. How it is done:
as §1, §2, §3, §4

A further assay has as its system K. pneumoniae 2011E. The note with it: Klebsiella pneumoniae, 2011E. How it is done: as §1, §2, §3, §4
A further assay deals with K. pneumoniae β14. To be noted: Klebsiella pneumoniae. The procedure: as §1, §2, §3, §4
For a further assay, the system named is P. aeruginosa 1912E. The note with it: Pseudomonas aeruginosa, 1912E. The procedure:
as §1, §2, §3, §4

The next assay concerns P. aeruginosa 37. The note with it: Pseudomonas aeruginosa, 37, P. aeruginosa 37. The procedure: as §1, §2, §3, §4
The test system of another assay is P. aeruginosa 40. The procedure: as §1, §2, §3, §4
Another assay has as its system P. aeruginosa 43. To be noted: Pseudomonas aeruginosa; P. aeruginosa 43; read-out: MIC90. The procedure:
as §1, §2, §3, §4

The test system of a further assay is P. aeruginosa 6065Y. To be noted: Pseudomonas aeruginosa. How it is done: as §1, §2, §3, §4
[2] abbreviates: Acinetobacter baumannii, A. baumannii 46, read-out: MIC90.
The mark [3] stands for this setting: Acinetobacter baumannii, A. baumannii 49, read-out: MIC90.
Setting [4] is: A. baumannii 52, read-out: MIC90.
The mark [5] stands for this setting: A. calcoaceticus ATCC15473, read-out: MIC90.
The mark [6] stands for this setting: AG100, E. coli AG100, read-out: MIC90.
[7] abbreviates: K. pneumoniae 2011E, read-out: MIC90.
Setting [8] is: Pseudomonas aeruginosa, 40, P. aeruginosa 40, read-out: MIC90.

Molecules are shown by their SMILES. ≈ marks a conversion by molar mass, not a printed value. Read-outs that look alike come from different tables or passages of the source. Bounds are passed on as bounds.

Broadly, the MIC90 is an inhibitory concentration at the 90% level, which refers to growth in some studies and to a panel of isolates in others. As to `CN(CCNc1c[n+](CC2=C(C(=O)[O-])N3C(=O)[C@@H](NC(=O)/C(=N\OC(C)(C)C(=O)O)c4csc(N)n4)C3SC2)cnc1N)Cc1ccc(O)c(O)c1` (stereo partly shown) [Compound 29], the MIC90 is 8 µg/mL (≈ 10.6 µM) with A. baumannii 46 (setting [2]); 32 µg/mL (≈ 42.3 µM) in the assay on A. baumannii 49 (setting [3]); 32 µg/mL (≈ 42.3 µM) in the assay with A. baumannii 52 (setting [4]); 4 µg/mL (≈ 5.29 µM) in assay [1] (setting [5]); 8 µg/mL (≈ 10.6 µM) in the assay with E. cloacae β19 (read-out: MIC90); 2 µg/mL (≈ 2.64 µM) in the assay with E. coli AG100 (setting [6]). In addition, the MIC90 in the assay on E. coli β4 (read-out: MIC90) was determined as 2 µg/mL (≈ 2.64 µM); with K. pneumoniae 2011E (setting [7]), 8 µg/mL (≈ 10.6 µM); in the assay with K. pneumoniae β14 (read-out: MIC90), 16 µg/mL (≈ 21.1 µM); in the assay on P. aeruginosa 1912E (read-out: MIC90), 2 µg/mL (≈ 2.64 µM); with P. aeruginosa 37 (read-out: MIC90), 2 µg/mL (≈ 2.64 µM); in the assay with P. aeruginosa 40 (setting [8]), 4 µg/mL (≈ 5.29 µM). Besides, the MIC90 with P. aeruginosa 43 is 4 µg/mL (≈ 5.29 µM); in the assay on P. aeruginosa 6065Y (read-out: MIC90) it was 8 µg/mL (≈ 10.6 µM).
With `CC(C)(O/N=C(\C(=O)N[C@@H]1C(=O)N2C(C(=O)[O-])=C(C[n+]3cnc(N)c(NCCNC(=O)c4ccc(O)c(O)c4)c3)CSC12)c1csc(N)n1)C(=O)O` (stereo partly shown) [Compound 30], the MIC90 is 1 µg/mL (≈ 1.32 µM) in the assay with A. baumannii 46 (setting [2]); > 128 µg/mL in the assay on A. baumannii 49 (setting [3]); 128 µg/mL (≈ 169 µM) with A. baumannii 52 (setting [4]); 1 µg/mL (≈ 1.32 µM) in assay [1] (setting [5]); 4 µg/mL (≈ 5.29 µM) in the assay on E. cloacae β19 (read-out: MIC90); 0.125 µg/mL (≈ 0.165 µM) in the assay with E. coli AG100 (setting [6]). The MIC90 is 2 µg/mL (≈ 2.64 µM) in the assay on E. coli β4 (read-out: MIC90); 0.5 µg/mL (≈ 0.661 µM) with K. pneumoniae 2011E (setting [7]); 16 µg/mL (≈ 21.1 µM) in the assay on K. pneumoniae β14 (read-out: MIC90); 1 µg/mL (≈ 1.32 µM) in the assay with P. aeruginosa 1912E (read-out: MIC90); 2 µg/mL (≈ 2.64 µM) with P. aeruginosa 37 (read-out: MIC90); 0.5 µg/mL (≈ 0.661 µM) in the assay with P. aeruginosa 40 (setting [8]). Also, the MIC90 in the assay with P. aeruginosa 43 and in the assay on P. aeruginosa 6065Y (read-out: MIC90) was 0.5 µg/mL (≈ 0.661 µM) throughout.
With `CC(C)(O/N=C(\C(=O)N[C@@H]1C(=O)N2C(C(=O)[O-])=C(C[n+]3cnc(N)c(N)c3)CSC12)c1csc(N)n1)C(=O)O` (stereo partly shown) [Compound 36], the MIC90 with A. baumannii 46 (setting [2]) is 64 µg/mL (≈ 111 µM); with A. baumannii 49 (setting [3]) it was > 128 µg/mL; with A. baumannii 52 (setting [4]), > 128 µg/mL; in assay [1] (setting [5]), 2 µg/mL (≈ 3.46 µM); in the assay on E. cloacae β19 (read-out: MIC90), > 128 µg/mL; in the assay on E. coli AG100 (setting [6]) it was 0.5 µg/mL (≈ 0.866 µM). In addition, the MIC90 with E. coli β4 (read-out: MIC90) is 16 µg/mL (≈ 27.7 µM); in the assay with K. pneumoniae 2011E (setting [7]), 0.5 µg/mL (≈ 0.866 µM); with K. pneumoniae β14 (read-out: MIC90), 16 µg/mL (≈ 27.7 µM); with P. aeruginosa 1912E (read-out: MIC90), 8 µg/mL (≈ 13.9 µM); with P. aeruginosa 37 (read-out: MIC90), > 128 µg/mL; in the assay on P. aeruginosa 40 (setting [8]), 16 µg/mL (≈ 27.7 µM). Besides, the MIC90 in the assay with P. aeruginosa 6065Y (read-out: MIC90) is 64 µg/mL (≈ 111 µM).
`CC(C)(O/N=C(\C(=O)N[C@@H]1C(=O)N2C(C(=O)[O-])=C(C[n+]3cnc(N)c(NCCN)c3)CSC12)c1csc(N)n1)C(=O)O` (stereo partly shown) [Compound 37]: the MIC90 is 4 µg/mL (≈ 6.44 µM) in the assay on A. baumannii 46 (Acinetobacter baumannii, 46, A. baumannii 46); 128 µg/mL (≈ 206 µM) against A. baumannii 49 (Acinetobacter baumannii, 49, A. baumannii 49); 64 µg/mL (≈ 103 µM) with A. baumannii 52 (52); 1 µg/mL (≈ 1.61 µM) in assay [1] (ATCC15473, A. calcoaceticus ATCC15473); 16 µg/mL (≈ 25.8 µM) in the assay on E. cloacae β19; 4 µg/mL (≈ 6.44 µM) with E. coli AG100 (AG100). Moreover, the MIC90 was 4 µg/mL (≈ 6.44 µM) with E. coli β4; 8 µg/mL (≈ 12.9 µM) with K. pneumoniae 2011E; 16 µg/mL (≈ 25.8 µM) against K. pneumoniae β14; 4 µg/mL (≈ 6.44 µM) against P. aeruginosa 1912E; 16 µg/mL (≈ 25.8 µM) against P. aeruginosa 37; 4 µg/mL (≈ 6.44 µM) against P. aeruginosa 40 (Pseudomonas aeruginosa, 40). This compound also came in with an MIC90 in the assay on P. aeruginosa 6065Y (6065Y) of 8 µg/mL (≈ 12.9 µM).
For the compound `CC(C)(O/N=C(\C(=O)N[C@@H]1C(=O)N2C(C(=O)[O-])=C(C[n+]3cnc(N)c(NCCCC(=O)O)c3)CSC12)c1csc(N)n1)C(=O)O` (stereo partly shown) [Compound 38], the MIC90 in the assay with A. baumannii 46 (setting [2]) is 128 µg/mL (≈ 193 µM); in the assay on A. baumannii 49 (setting [3]), > 128 µg/mL; in the assay on A. baumannii 52 (setting [4]), > 128 µg/mL; in assay [1] (setting [5]), 16 µg/mL (≈ 24.1 µM); with E. cloacae β19 (read-out: MIC90) it was > 128 µg/mL; with E. coli AG100 (setting [6]), 8 µg/mL (≈ 12.1 µM). Besides, the MIC90 with E. coli β4 (read-out: MIC90) was 16 µg/mL (≈ 24.1 µM); in the assay with K. pneumoniae 2011E (setting [7]) it was 4 µg/mL (≈ 6.03 µM); with K. pneumoniae β14 (read-out: MIC90), 64 µg/mL (≈ 96.4 µM); with P. aeruginosa 1912E (read-out: MIC90), 32 µg/mL (≈ 48.2 µM); with P. aeruginosa 37 (read-out: MIC90), > 128 µg/mL; in the assay on P. aeruginosa 40 (setting [8]), 64 µg/mL (≈ 96.4 µM). In addition, the MIC90 in the assay on P. aeruginosa 6065Y (read-out: MIC90) turned out to be 128 µg/mL (≈ 193 µM).
